The source made the active and inactive calls. No cut-off for these calls is given here.

The first assay deals with Haemonchus contortus. Briefly: Anthelmintic activity against benzimidazole and Levamisole-resistant Haemonchus contortus Lawes. In kind it is functional.
The compound `CCCOc1ccc2nc(-c3ccc4c(c3)OCO4)cn2n1` had an LD99 of 0.67 µM.

A further assay has as its system Teladorsagia circumcincta. Briefly: Anthelmintic activity against Ostertagia circumcincta. In kind it is functional.
Compound `CCCOc1ccc2nc(-c3ccc4c(c3)OCO4)cn2n1` yielded an LD99 of 0.33 µM.

The next assay has as its system Haemonchus contortus. Briefly: Anthelmintic activity against benzimidazole-resistant Haemonchus contortus VRSG. In kind it is functional.
`CCCOc1ccc2nc(-c3ccc4c(c3)OCO4)cn2n1` registered an LD99 of 0.94 µM.

The next assay has as its system Haemonchus contortus. The experiment in a line: Anthelmintic activity against Ivermectin-resistant Haemonchus contortus CAVR. In kind it is functional.
`CCCOc1ccc2nc(-c3ccc4c(c3)OCO4)cn2n1` showed an LD99 of 1.85 µM.

The test system of a further assay is Trichostrongylus colubriformis. The experiment in a line: Anthelmintic activity against Trichostrongylus colubriformis McMaster. In kind it is functional.
Regarding `CCCOc1ccc2nc(-c3ccc4c(c3)OCO4)cn2n1`, the LD99 came to 0.67 µM.

In the next assay the test system is Haemonchus contortus. Briefly: Anthelmintic activity against Haemonchus contortus McMaster by larvel development assay. It is filed as functional.
Consider `CCCSc1ccc2nc(-c3ccc(OCCOC)cc3)cn2n1`, for which the LD99 is 2.36 µM.

Turning to `CCCOc1ccc2nc(-c3ccc(OCCOC)cc3)cn2n1`, the LD99 came out at 0.29 µM.

On to `CCCOc1ccc2nc(-c3ccc(OCCOC)c(OC)c3)c(C#N)n2n1`, for which the LD99 result is “inactive”. Compound `CCCCN(C)c1ccc2nc(-c3ccc(OCCOC)cc3)cn2n1` yielded an LD99 of 2.29 µM. On the same count and under the same terms, then `Clc1ccc(-c2cn3nc(OCC4CC4)ccc3n2)c(Cl)c1`, with “inactive”; and `COCCOc1ccc(-c2cn3nc(N4CCCC4)ccc3n2)cc1`, with 9.6 µM. As for `COCCOc1ccc(-c2cn3nc(OCC4CC4)ccc3n2)cc1`, the LD99 worked out at 0.11 µM. Still for that read-out and setting: then `CCCSc1ccc2nc(-c3cccc(OC)c3)cn2n1`, with 2.1 µM; and `CCCOc1ccc2nc(-c3ccc(OCCOC)cc3)c(I)n2n1`, with 0.03 µM; and `CCOc1ccc2nc(-c3ccc(OCCOC)cc3)cn2n1`, with 1.3 µM. Same read-out and setting: under `COCCOc1ccc(-c2nc3ccc(OCc4ccccc4)nn3c2Cl)cc1` stands “inactive”; under `CCCCSc1ccc2nc(-c3ccc(OCCOC)cc3)cn2n1`, 0.26 µM; under `COCCOc1ccc(-c2cn3nc(-c4ccsc4)ccc3n2)cc1`, 1.96 µM. The same measure, in the same setting: then `COCCOc1ccc(-c2cn3nc(OC(C)C)ccc3n2)cc1`, with 4.96 µM; and `CCCOc1ccc2nc(-c3ccc(OCCOC)c(OC)c3)cn2n1`, with 2.27 µM; and `CCc1ccc(-c2cn3nc(OCC4CC4)ccc3n2)cc1`, with 0.27 µM. In turn, `CCCOc1ccc2nc(-c3cccc(OCCOC)c3)c(C)n2n1` came in with an LD99 of 5.49 µM. Compound `CCCSc1ccc2nc(-c3ccc(OCC)cc3)cn2n1` registered an LD99 of 1.21 µM. Same read-out and setting: under `COCCOc1ccc(-c2cn3nc(OC4CCCC4)ccc3n2)cc1` stands 5.31 µM. On the same count and under the same terms, then `COCCOc1ccc(-c2nc3ccc(OCC4CC4)nn3c2Br)cc1`, with 0.1 µM. Same read-out and setting: under `CCCOc1ccc2nc(-c3ccc(Cl)cc3)cn2n1` stands 13.03 µM; under `CCOc1ccc(-c2cn3nc(OCC4CC4)ccc3n2)cc1`, 0.09 µM; under `CCCOc1ccc2nc(-c3ccc(OCCOC)cc3)c(C)n2n1`, 0.32 µM. Regarding `CCCOc1ccc2nc(-c3ccc(OCCOC)cc3)c(Br)n2n1`, the LD99 came to 0.03 µM. The same measure, in the same setting: under `CCCOc1ccc2nc(-c3ccc(OC)c(OC)c3)cn2n1` stands 4.15 µM; under `COCCOc1cccc(-c2nc3ccc(SC(C)C)nn3c2C)c1`, 19.58 µM; under `c1ccc([C@H]2CN3CCSC3=N2)cc1` [LEVAMISOLE], 0.66 µM.

`CCCOc1ccc2nc(-c3ccc(OCCOC)cc3)c(C#N)n2n1` registered an LD99 of 0.11 µM.

`CCCOc1ccc2nc(-c3ccc4c(c3)OCCO4)cn2n1` returned an LD99 of 2.6 µM.

Take `CCCOc1nn2cc(-c3ccc(OCCOC)c(OC)c3)nc2cc1C`: the LD99 was found to be 0.32 µM. The same measure, in the same setting: then IVERMECTIN, with 0.006 µM; and `CCCOc1ccc2nc(-c3ccc(OCCOCC)cc3)cn2n1`, with 0.32 µM.

Regarding `CCCOc1nn2cc(-c3ccc(OCCOC)cc3)nc2c2ccccc12`, the LD99 stood at 0.91 µM. Same read-out and setting: then `COCCOc1ccc(-c2cn3nc(-c4ccccc4)ccc3n2)cc1`, with 8.11 µM; and `COCCOc1ccc(-c2cn3nc(SC(C)C)ccc3n2)cc1`, with 0.59 µM; and `FC(F)(F)c1ccc(-c2cn3nc(OCC4CC4)ccc3n2)cc1`, with “inactive”. The same measure, in the same setting: under `CCCOc1ccc2nc(-c3ccc(OCCOC)cc3)c(-c3ccccc3)n2n1` stands 9.29 µM; under `CCOCCOc1ccc(-c2cn3nc(SCC(C)C)ccc3n2)cc1`, 0.87 µM; under `COCCOc1ccc(-c2cn3nc(OCCOC)ccc3n2)cc1`, 17.47 µM.

Compound `CCCCOc1ccc2nc(-c3ccc(OCCOC)cc3)cn2n1` came in with an LD99 of 0.64 µM. On the same count and under the same terms, then `CCCSc1ccc2nc(-c3ccc(OCCOC)c(OC)c3)cn2n1`, with 2.17 µM; and `COCCOc1cccc(-c2nc3ccc(OC(C)C)nn3c2C)c1`, with 14.65 µM; and `CCCCc1ccc2nc(-c3ccc(OCCOC)cc3)cn2n1`, with 1.92 µM. In turn, `CCCCSc1ccc2nc(-c3ccc(OCCOCC)cc3)cn2n1` had an LD99 of 0.59 µM.

In the case of `CCCOc1nn2cc(-c3ccc(OCC)cc3)nc2c2ccccc12`, the LD99 was 1.8 µM. Same read-out and setting: then `CCCSc1ccc2nc(-c3ccc(OCCOC)c(OC)c3)c(Br)n2n1`, with 1.66 µM.

`CCOCCOc1ccc(-c2cn3nc(OCC4CC4)ccc3n2)cc1` returned an LD99 of 0.11 µM. On the same count and under the same terms, then `CCCOc1ccc2nc(-c3ccc(OCCOC)cc3)c(Cl)n2n1`, with 0.06 µM; and `CCCNc1ccc2nc(-c3ccc(OCCOC)cc3)cn2n1`, with 2.11 µM; and `CCCOc1ccc2nc(-c3cccc(OC)c3)cn2n1`, with 0.81 µM.

For the compound `COCCOc1ccc(-c2cn3ncccc3n2)cc1`, the LD99 result was “inactive”. In turn, `CCCOc1nn2cc(-c3ccc(OCC)cc3)nc2cc1C` returned an LD99 of 0.6 µM. Same read-out and setting: then `CCCSc1ccc2nc(-c3ccc(Cl)cc3Cl)cn2n1`, with “inactive”; and `CCCOc1ccc2nc(-c3ccc(OCCOC)c(OC)c3)c(I)n2n1`, with 10.35 µM. The same measure, in the same setting: then `CCCCSc1ccc2nc(-c3ccc(C(F)(F)F)cc3)cn2n1`, with “inactive”; and `CCCOc1ccc2nc(-c3ccccc3)cn2n1`, with “inactive”; and `CCCOc1ccc2nc(-c3ccc4c(c3)OCO4)cn2n1`, with 0.77 µM.

Values taken from ChEMBL document CHEMBL1795204 (2011).
